Data on ten compounds can be found in patent US7553864B2, “Compounds for the treatment of inflammatory disorders and microbial diseases” (Schering Corporation, priority 2005, dated 2009).

For this test, the system named is LpxC enzyme. Description: LpxC enzyme assay (RapidFire high-throughput mass spectrometry). It is filed as biochemical. Put shortly:
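0.2 nM enzyme with 1.0 μM UDP-3-O-(R-3-hydroxymyristoyl)-N-acetylglucosamine in 25 mM HEPES pH 7.3, 150 mM NaCl, 2.0 mM DTT, 0.01% BSA, 2% DMSO; 60 min at room temperature, quenched with HCl. Substrate and product quantified by RapidFire mass spectrometry; percent conversion gives percent inhibition versus DMSO control.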

Where [1] appears, read: concentration 0.10 (unit not given).
[2] abbreviates: concentration 0.20 (unit not given).
Setting [3] is: concentration 0.39 (unit not given).
[4] abbreviates: concentration 0.78 (unit not given).
[5] abbreviates: concentration 1.56 (unit not given).
Where [6] appears, read: concentration 3.13 (unit not given).
Where [7] appears, read: concentration 6.25 (unit not given).
[8] abbreviates: concentration 12.50 (unit not given).
Where [9] appears, read: concentration 25 (unit not given).
Where [10] appears, read: concentration 50 (unit not given).

As to `CNC(=O)[C@H](O)[C@@H](O)C(=O)Nc1ccc(OCCN(C)C)cc1` [Compound 39], the “LpxC enzyme assay rating (% inhibition at indicated concentrations)” value under setting [1] was “C (less than 10% inhibition)”; the “LpxC enzyme assay rating (% inhibition at indicated concentrations)” value under setting [2] is “C (less than 10% inhibition)”; the “LpxC enzyme assay rating (% inhibition at indicated concentrations)” value under setting [3] is given as “C (less than 10% inhibition)”; the “LpxC enzyme assay rating (% inhibition at indicated concentrations)” value under setting [4] is listed as “B (10-30% inhibition)”; the “LpxC enzyme assay rating (% inhibition at indicated concentrations)” value under setting [5] is reported as “C (less than 10% inhibition)”; the “LpxC enzyme assay rating (% inhibition at indicated concentrations)” value under setting [6] is recorded as “B (10-30% inhibition)”. Further, the “LpxC enzyme assay rating (% inhibition at indicated concentrations)” value was “B (10-30% inhibition)” under setting [7], “C (less than 10% inhibition)” under setting [8], “C (less than 10% inhibition)” under setting [9] and “B (10-30% inhibition)” under setting [10].

For the compound `O=C(Nc1ccc(-c2ccc(C(F)(F)F)cc2)cc1)[C@H](O)[C@@H](O)C(=O)N1CCCC1` [Compound 65], the “LpxC enzyme assay rating (% inhibition at indicated concentrations)” value under setting [1] was “B (10-30% inhibition)”; the “LpxC enzyme assay rating (% inhibition at indicated concentrations)” value under setting [2] is recorded as “B (10-30% inhibition)”; the “LpxC enzyme assay rating (% inhibition at indicated concentrations)” value under setting [3] was “B (10-30% inhibition)”; the “LpxC enzyme assay rating (% inhibition at indicated concentrations)” value under setting [4] is given as “C (less than 10% inhibition)”; the “LpxC enzyme assay rating (% inhibition at indicated concentrations)” value under setting [5] is “B (10-30% inhibition)”; the “LpxC enzyme assay rating (% inhibition at indicated concentrations)” value under setting [6] was “B (10-30% inhibition)”. The “LpxC enzyme assay rating (% inhibition at indicated concentrations)” value is, setting by setting: under setting [7], “B (10-30% inhibition)”; under setting [8], “B (10-30% inhibition)”; under setting [9], “B (10-30% inhibition)”; under setting [10], “B (10-30% inhibition)”.

Regarding `CNC(=O)[C@H](O)[C@@H](O)C(=O)n1ccc2cc(C#Cc3ccccc3)ccc21` [Compound 26], the “LpxC enzyme assay rating (% inhibition at indicated concentrations)” value was “C (less than 10% inhibition)” under setting [1]; “C (less than 10% inhibition)” under setting [2]; “C (less than 10% inhibition)” under setting [3]; “C (less than 10% inhibition)” under setting [4]; “C (less than 10% inhibition)” under setting [5]; “C (less than 10% inhibition)” under setting [6]. For the same compound, the “LpxC enzyme assay rating (% inhibition at indicated concentrations)” value is “C (less than 10% inhibition)” under setting [7], “B (10-30% inhibition)” under setting [8], “C (less than 10% inhibition)” under setting [9] and “B (10-30% inhibition)” under setting [10].

Regarding `O=C(Nc1ccc(-c2ccccc2)cc1)[C@H](O)[C@@H](O)C(=O)N1CCCC1` [Compound 64], the “LpxC enzyme assay rating (% inhibition at indicated concentrations)” value is, setting by setting: under setting [1], “B (10-30% inhibition)”; under setting [2], “B (10-30% inhibition)”; under setting [3], “C (less than 10% inhibition)”; under setting [4], “B (10-30% inhibition)”; under setting [5], “C (less than 10% inhibition)”; under setting [6], “B (10-30% inhibition)”. In addition, the “LpxC enzyme assay rating (% inhibition at indicated concentrations)” value runs as follows: under setting [7], “B (10-30% inhibition)”; under setting [8], “B (10-30% inhibition)”; under setting [9], “B (10-30% inhibition)”; under setting [10], “B (10-30% inhibition)”.

Take `CN(C)C(=O)[C@H](O)[C@@H](O)C(=O)N(C)c1ccc(-c2ccc3ccccc3c2)cc1` [Compound 104]: the “LpxC enzyme assay rating (% inhibition at indicated concentrations)” value runs as follows: under setting [1], “C (less than 10% inhibition)”; under setting [2], “C (less than 10% inhibition)”; under setting [3], “C (less than 10% inhibition)”; under setting [4], “C (less than 10% inhibition)”; under setting [5], “C (less than 10% inhibition)”; under setting [6], “C (less than 10% inhibition)”. For the same compound, the “LpxC enzyme assay rating (% inhibition at indicated concentrations)” value is reported as “C (less than 10% inhibition)” under setting [7], “C (less than 10% inhibition)” under setting [8] and “B (10-30% inhibition)” under setting [9].

`CNC(=O)[C@H](O)[C@@H](O)C(=O)N1CCN(c2cccc(-c3ccccc3)c2)CC1` [Compound 31]: the “LpxC enzyme assay rating (% inhibition at indicated concentrations)” value is “C (less than 10% inhibition)” under setting [1]; “B (10-30% inhibition)” under setting [2]; “C (less than 10% inhibition)” under setting [3]; “B (10-30% inhibition)” under setting [4]; “B (10-30% inhibition)” under setting [5]; “B (10-30% inhibition)” under setting [6]. Further, the “LpxC enzyme assay rating (% inhibition at indicated concentrations)” value under setting [7] is recorded as “C (less than 10% inhibition)”, the “LpxC enzyme assay rating (% inhibition at indicated concentrations)” value under setting [8] is reported as “B (10-30% inhibition)”, the “LpxC enzyme assay rating (% inhibition at indicated concentrations)” value under setting [9] was “B (10-30% inhibition)” and the “LpxC enzyme assay rating (% inhibition at indicated concentrations)” value under setting [10] is given as “B (10-30% inhibition)”.

Turning to `CCCc1ccc(NC(=O)[C@H](O)[C@@H](O)C(=O)NCCCCl)cc1` [Compound 61], the “LpxC enzyme assay rating (% inhibition at indicated concentrations)” value was “C (less than 10% inhibition)” under setting [1]; “C (less than 10% inhibition)” under setting [2]; “C (less than 10% inhibition)” under setting [3]; “C (less than 10% inhibition)” under setting [4]; “C (less than 10% inhibition)” under setting [5]; “C (less than 10% inhibition)” under setting [6]. The “LpxC enzyme assay rating (% inhibition at indicated concentrations)” value under setting [7] is “C (less than 10% inhibition)”, the “LpxC enzyme assay rating (% inhibition at indicated concentrations)” value under setting [8] was “C (less than 10% inhibition)”, the “LpxC enzyme assay rating (% inhibition at indicated concentrations)” value under setting [9] is on record as “B (10-30% inhibition)” and the “LpxC enzyme assay rating (% inhibition at indicated concentrations)” value under setting [10] is “B (10-30% inhibition)”.

`CNC(=O)[C@H](O)[C@@H](O)C(=O)Nc1ccc(OCCCN(C)C)cc1` [Compound 40]: the “LpxC enzyme assay rating (% inhibition at indicated concentrations)” value is listed as “C (less than 10% inhibition)” under setting [1]; “C (less than 10% inhibition)” under setting [2]; “C (less than 10% inhibition)” under setting [3]; “B (10-30% inhibition)” under setting [4]; “C (less than 10% inhibition)” under setting [5]; “C (less than 10% inhibition)” under setting [6]. Moreover, the “LpxC enzyme assay rating (% inhibition at indicated concentrations)” value is on record as “C (less than 10% inhibition)” under setting [7], “B (10-30% inhibition)” under setting [8], “B (10-30% inhibition)” under setting [9] and “C (less than 10% inhibition)” under setting [10].

Take `CNC(=O)[C@H](O)[C@@H](O)C(=O)Nc1ccc(C#Cc2ccccc2)cc1` [Compound 25]: the “LpxC enzyme assay rating (% inhibition at indicated concentrations)” value is recorded as “C (less than 10% inhibition)” under setting [1]; “C (less than 10% inhibition)” under setting [2]; “C (less than 10% inhibition)” under setting [3]; “C (less than 10% inhibition)” under setting [4]; “C (less than 10% inhibition)” under setting [5]; “C (less than 10% inhibition)” under setting [6]. Besides, the “LpxC enzyme assay rating (% inhibition at indicated concentrations)” value was “C (less than 10% inhibition)” under setting [7], “B (10-30% inhibition)” under setting [8], “C (less than 10% inhibition)” under setting [9] and “C (less than 10% inhibition)” under setting [10].

Take `CNC(=O)[C@H](O)[C@@H](O)C(=O)Nc1ccc(-c2ccccc2)cc1` [Compound 27]: the “LpxC enzyme assay rating (% inhibition at indicated concentrations)” value is recorded as “C (less than 10% inhibition)” under setting [1]; “C (less than 10% inhibition)” under setting [2]; “C (less than 10% inhibition)” under setting [3]; “C (less than 10% inhibition)” under setting [4]; “C (less than 10% inhibition)” under setting [5]; “B (10-30% inhibition)” under setting [6]. Also, the “LpxC enzyme assay rating (% inhibition at indicated concentrations)” value is, setting by setting: under setting [7], “B (10-30% inhibition)”; under setting [8], “B (10-30% inhibition)”; under setting [9], “B (10-30% inhibition)”; under setting [10], “B (10-30% inhibition)”.
